{"source": "patent US20180117006A1", "about": "“ANTI-FUGETACTIC AGENT AND IMMUNOTHERAPY AGENT COMBINATION THERAPY AND COMPOSITIONS FOR THE TREATMENT OF CANCER” (THE GENERAL HOSPITAL CORPORATION, priority 2015, published 2018)", "tested_on": "tumor that expresses high levels of CXCL12", "assay": "Tumor growth in mice with a subcutaneous CXCL12-expressing tumor", "format": "in vivo", "details": "AMD3100 subcutaneous once a day for 5 days, then NK-92 cells intraperitoneal one to three days after the final dose, contemplated synergistic effect", "procedure": "Mice are injected with tumor cells (subcutaneous injection) from a tumor that expresses high levels of CXCL12 and a tumor allowed to develop. Once the tumor has formed, the mice are injected (subcutaneous in the same flank as the tumor) with AMD3100 or vehicle, once a day for 5 days.\nOne to three days after the final dose of AMD3100, mice are injected via intraperitoneal injection with NK-92 cells or vehicle 18 hours prior to assay of tumor growth. Tumor growth in mice is delayed by NK-92 cell treatment, but resumes soon after the treatment is discontinued in mice that were not administered AMD3100.", "data": [{"smiles": "c1cc(CN2CCCNCCNCCCNCC2)ccc1CN1CCCNCCNCCCNCC1", "note": "[AMD3100]", "values": [{"measurement": "Delay in tumor growth (co-treatment)", "value": "longer than NK-92 cells alone"}]}]}
